Values after ≈ are worked out from the molar mass of the structure shown.
What was measured:
[1] = system: Plasmodium falciparum; assay: Antimalarial activity against Plasmodium falciparum TM90C2A; type: functional, organism-based
[2] = system: Plasmodium falciparum; assay: Antimalarial activity against chloroquine-resistant and mefloquine-sensitive Plasmodium falciparum W2; type: functional, organism-based
[3] = system: Plasmodium falciparum; assay: Antimalarial activity against chloroquine and mefloquine-sensitive Plasmodium falciparum D6; type: functional
[4] = system: Plasmodium falciparum; assay: Antimalarial activity against chloroquine, pyrimethamine and mefloquine-resistant Plasmodium falciparum TM1C235; type: functional, organism-based
[5] = Half life in mouse liver microsomes; type: ADME, Microsome
[6] = Cytotoxicity against mouse RAW264.7 cells; type: cell-based; conditions: read-out: LC50 (the source's name)
[7] = Apparent permeability from apical to basolateral side of MDCK cell monolayer expressing MDR1; type: ADME, cell-based, Canis lupus familiaris; conditions: dog
[8] = system: Plasmodium berghei; assay: Antimalarial activity against Plasmodium berghei infected in ICR mice (Mus musculus) assessed as delay in mortality at 160 mg/kg, perorally for 3 days; type: functional, organism-based; design: dose 160 mg/kg

Work on `Cc1nc2ccccc2n1CC(O)c1cc(C(F)(F)F)nc2c(C(F)(F)F)cccc12` (stereo not given) yielded an IC90 [1] of 0.32 µg/mL (≈ 0.728 µM), an IC90 [2] of 0.22 µg/mL (≈ 0.501 µM) and an IC90 [3] of 0.11 µg/mL (≈ 0.25 µM). The IC90 [4] was 0.31 µg/mL (≈ 0.706 µM) and the half-life [5] was 9 min.

For `CC(C)CNCC(O)c1cc(C(F)(F)F)nc2c(C(F)(F)F)cccc12` (stereo not given), the IC90 [1] was 0.021 µg/mL (≈ 0.0552 µM), the CC50 [6] was 27.1 µg/mL (≈ 71.3 µM) and the IC90 [2] was 0.013 µg/mL (≈ 0.0342 µM). For the same molecule, the IC90 [3] was 0.002 µg/mL (≈ 0.00526 µM), the IC90 [4] was 0.015 µg/mL (≈ 0.0394 µM) and the half-life [5] was 27 min.

`OC(Cn1cnc2ccccc21)c1cc(C(F)(F)F)nc2c(C(F)(F)F)cccc12` (stereo not given) gave an IC90 [1] of 0.45 µg/mL (≈ 1.06 µM), an IC90 [2] of 0.41 µg/mL (≈ 0.964 µM) and an IC90 [3] of 0.12 µg/mL (≈ 0.282 µM). For the same molecule, the IC90 [4] was 0.48 µg/mL (≈ 1.13 µM) and the half-life [5] was 4 min.

With `CSCCCNCC(O)c1cc(C(F)(F)F)nc2c(C(F)(F)F)cccc12` (stereo not given) the Papp A→B [7] was 38 ×10⁻⁶ cm/s, the CC50 [6] was 8.62 µg/mL (≈ 20.9 µM) and the IC90 [2] was 0.036 µg/mL (≈ 0.0873 µM). For the same molecule, the IC90 [3] was 0.01 µg/mL (≈ 0.0242 µM).

In the case of `CCCN(CCC)CC(O)c1cc(C(F)(F)F)nc2c(C(F)(F)F)cccc12` (stereo not given), the IC90 [1] is reported as 0.03 µg/mL (≈ 0.0735 µM), the CC50 [6] is reported as 33.2 µg/mL (≈ 81.2 µM) and the IC90 [2] is reported as 0.02 µg/mL (≈ 0.049 µM). It also gave an IC90 [3] of 0.005 µg/mL (≈ 0.0122 µM) and an IC90 [4] of 0.02 µg/mL (≈ 0.049 µM).

With `NCC(O)c1cc(C(F)(F)F)nc2c(C(F)(F)F)cccc12` (stereo not given) the IC90 [1] was over 0.5 µg/mL, the CC50 [6] was 8.07 µg/mL (≈ 24.9 µM) and the IC90 [2] was 0.4 µg/mL (≈ 1.23 µM). The IC90 [3] was 0.47 µg/mL (≈ 1.45 µM) and the IC90 [4] was over 0.5 µg/mL.

Molecule `CCN(CC)CC(O)c1cc(C(F)(F)F)nc2c(C(F)(F)F)cccc12` (stereo not given) has an IC90 [1] of 0.067 µg/mL (≈ 0.176 µM), a CC50 [6] of 2.09 µg/mL (≈ 5.5 µM) and an IC90 [2] of 0.026 µg/mL (≈ 0.0684 µM). It also gave an IC90 [3] of 0.009 µg/mL (≈ 0.0237 µM) and an IC90 [4] of 0.037 µg/mL (≈ 0.0973 µM).

Molecule `OC(CNCC(F)(F)F)c1cc(C(F)(F)F)nc2c(C(F)(F)F)cccc12` (stereo not given) has an IC50 [1] of over 0.5 µg/mL, a CC50 [6] of 32.1 µg/mL (≈ 78.9 µM) and an IC50 [2] of over 0.5 µg/mL. For the same molecule, the IC90 [3] was over 0.5 µg/mL and the IC50 [4] was over 0.5 µg/mL.

`COCCNCC(O)c1cc(C(F)(F)F)nc2c(C(F)(F)F)cccc12` (stereo not given) showed an IC90 [1] of 0.1 µg/mL (≈ 0.262 µM), a Papp A→B [7] of 32 ×10⁻⁶ cm/s and a CC50 [6] of 38.2 µg/mL (≈ 100 µM). The IC90 [2] was 0.059 µg/mL (≈ 0.154 µM), the IC90 [3] was 0.015 µg/mL (≈ 0.0392 µM) and the IC90 [4] was 0.093 µg/mL (≈ 0.243 µM).

In the case of `CCCCCCNCC(O)c1cc(C(F)(F)F)nc2c(C(F)(F)F)cccc12` (stereo not given), the IC90 [1] is reported as 0.481 µg/mL (≈ 1.18 µM), the IC90 [2] is reported as 0.372 µg/mL (≈ 0.911 µM) and the IC90 [3] is reported as 0.124 µg/mL (≈ 0.304 µM). For the same molecule, the IC90 [4] was 0.409 µg/mL (≈ 1 µM).

`OC(CNc1ccccc1)c1cc(C(F)(F)F)nc2c(C(F)(F)F)cccc12` (stereo not given) showed an IC90 [1] of 0.5 µg/mL (≈ 1.25 µM), a CC50 [6] of 22.3 µg/mL (≈ 55.7 µM) and an IC90 [2] of 0.377 µg/mL (≈ 0.942 µM). The IC90 [3] was 0.484 µg/mL (≈ 1.21 µM) and the IC90 [4] was 0.437 µg/mL (≈ 1.09 µM).

Work on `OC(CNCCNCc1ccccc1)c1cc(C(F)(F)F)nc2c(C(F)(F)F)cccc12` (stereo not given) yielded a Papp A→B [7] of 8.4 ×10⁻⁶ cm/s, a CC50 [6] of 8.28 µg/mL (≈ 18.1 µM) and an IC90 [2] of 0.029 µg/mL (≈ 0.0634 µM). For the same molecule, the survival time [8] was 10 days and the IC90 [3] was 0.006 µg/mL (≈ 0.0131 µM).

`CCCCNCC(O)c1cc(C(F)(F)F)nc2c(C(F)(F)F)cccc12` (stereo not given) showed an IC90 [1] of 0.012 µg/mL (≈ 0.0316 µM), a Papp A→B [7] of 25 ×10⁻⁶ cm/s and a CC50 [6] of 2.96 µg/mL (≈ 7.8 µM). The IC90 [2] was 0.001 µg/mL (≈ 0.00263 µM), the IC90 [3] was 0.002 µg/mL (≈ 0.00526 µM) and the IC90 [4] was 0.009 µg/mL (≈ 0.0237 µM).

For `COCCCNCC(O)c1cc(C(F)(F)F)nc2c(C(F)(F)F)cccc12` (stereo not given), the IC90 [1] was 0.086 µg/mL (≈ 0.217 µM), the CC50 [6] was 25.2 µg/mL (≈ 63.5 µM) and the IC90 [2] was 0.051 µg/mL (≈ 0.129 µM). For the same molecule, the IC90 [3] was 0.012 µg/mL (≈ 0.0303 µM) and the IC90 [4] was 0.084 µg/mL (≈ 0.212 µM).

For `OCCNCC(O)c1cc(C(F)(F)F)nc2c(C(F)(F)F)cccc12` (stereo not given), the IC90 [1] was 0.388 µg/mL (≈ 1.05 µM), the IC90 [2] was 0.49 µg/mL (≈ 1.33 µM) and the IC90 [3] was 0.26 µg/mL (≈ 0.706 µM). The IC90 [4] was 0.485 µg/mL (≈ 1.32 µM).

In the case of `CCc1nc(C)cn1CC(O)c1cc(C(F)(F)F)nc2c(C(F)(F)F)cccc12` (stereo not given), the IC90 [1] is reported as 0.057 µg/mL (≈ 0.137 µM), the CC50 [6] is reported as 25.7 µg/mL (≈ 61.6 µM) and the IC90 [2] is reported as 0.043 µg/mL (≈ 0.103 µM). It also gave an IC90 [3] of 0.069 µg/mL (≈ 0.165 µM), an IC90 [4] of 0.056 µg/mL (≈ 0.134 µM) and a half-life [5] of 22 min.

`CCCCCCC(O)c1cc(C(F)(F)F)nc2c(C(F)(F)F)cccc12` (stereo not given) gave an IC50 [1] of over 0.5 µg/mL, an IC50 [2] of over 0.5 µg/mL and an IC90 [3] of over 0.5 µg/mL. The IC50 [4] was over 0.5 µg/mL.

`OC(CNCc1ccccc1)c1cc(C(F)(F)F)nc2c(C(F)(F)F)cccc12` (stereo not given) gave an IC90 [1] of 0.151 µg/mL (≈ 0.364 µM), a CC50 [6] of 20.4 µg/mL (≈ 49.3 µM) and an IC90 [2] of 0.067 µg/mL (≈ 0.162 µM). The IC90 [3] was 0.019 µg/mL (≈ 0.0459 µM) and the IC90 [4] was 0.086 µg/mL (≈ 0.208 µM).

Work on `CN(C)CC(O)c1cc(C(F)(F)F)nc2c(C(F)(F)F)cccc12` (stereo not given) yielded an IC90 [1] of 0.173 µg/mL (≈ 0.491 µM), a CC50 [6] of 24.6 µg/mL (≈ 69.9 µM) and an IC90 [2] of 0.069 µg/mL (≈ 0.196 µM). For the same molecule, the IC90 [3] was 0.02 µg/mL (≈ 0.0568 µM) and the IC90 [4] was 0.079 µg/mL (≈ 0.224 µM).

Work on `CCCc1nccn1CC(O)c1cc(C(F)(F)F)nc2c(C(F)(F)F)cccc12` (stereo not given) yielded an IC90 [1] of 0.24 µg/mL (≈ 0.575 µM), a CC50 [6] of 50.1 µg/mL (≈ 120 µM) and an IC90 [2] of 0.32 µg/mL (≈ 0.767 µM). It also gave an IC90 [3] of 0.36 µg/mL (≈ 0.863 µM), an IC90 [4] of 0.25 µg/mL (≈ 0.599 µM) and a half-life [5] of 8 min.

Molecule `CCCCN(CCCC)CC(O)c1cc(C(F)(F)F)nc2c(C(F)(F)F)cccc12` (stereo not given) has an IC90 [1] of 0.019 µg/mL (≈ 0.0435 µM), a CC50 [6] of 20.1 µg/mL (≈ 46 µM) and an IC90 [2] of 0.011 µg/mL (≈ 0.0252 µM). It also gave an IC90 [3] of 0.002 µg/mL (≈ 0.00458 µM) and an IC90 [4] of 0.027 µg/mL (≈ 0.0619 µM).

`OC(c1cc(C(F)(F)F)nc2c(C(F)(F)F)cccc12)C1CCCCN1` (racemic) [MEFLOQUINE] gave a Papp A→B [7] of 9.4 ×10⁻⁶ cm/s.

Molecule `CCCCOCC(O)c1cc(C(F)(F)F)nc2c(C(F)(F)F)cccc12` (stereo not given) has an IC50 [1] of over 0.5 µg/mL, an IC50 [2] of over 0.5 µg/mL and an IC90 [3] of over 0.5 µg/mL. For the same molecule, the IC50 [4] was over 0.5 µg/mL.

`CC(C)NCC(O)c1cc(C(F)(F)F)nc2c(C(F)(F)F)cccc12` (stereo not given) gave a CC50 [6] of 5.2 µg/mL (≈ 14.2 µM), an IC90 [3] of 0.005 µg/mL (≈ 0.0136 µM) and an IC90 [4] of 0.023 µg/mL (≈ 0.0628 µM). It also gave a half-life [5] of 60 min.

In the case of `OC(c1cc(C(F)(F)F)nc2c(C(F)(F)F)cccc12)C1CCCCN1` (stereo not given) [MEFLOQUINE], the half-life [5] is reported as over 60 min.

In the case of `CNCC(O)c1cc(C(F)(F)F)nc2c(C(F)(F)F)cccc12` (stereo not given), the Papp A→B [7] is reported as 24 ×10⁻⁶ cm/s, the CC50 [6] is reported as 13.7 µg/mL (≈ 40.4 µM) and the IC90 [2] is reported as 0.045 µg/mL (≈ 0.133 µM). It also gave an IC90 [3] of 0.017 µg/mL (≈ 0.0503 µM) and a half-life [5] of 60 min.

With `OC(CNCCF)c1cc(C(F)(F)F)nc2c(C(F)(F)F)cccc12` (stereo not given) the IC50 [1] was over 0.5 µg/mL, the IC50 [2] was over 0.5 µg/mL and the IC90 [3] was over 0.5 µg/mL. The IC50 [4] was over 0.5 µg/mL.

In the case of `OC(CNCCc1ccccc1)c1cc(C(F)(F)F)nc2c(C(F)(F)F)cccc12` (stereo not given), the IC90 [1] is reported as 0.023 µg/mL (≈ 0.0537 µM), the CC50 [6] is reported as 9.64 µg/mL (≈ 22.5 µM) and the IC90 [2] is reported as 0.023 µg/mL (≈ 0.0537 µM). The IC90 [3] was 0.019 µg/mL (≈ 0.0444 µM) and the IC90 [4] was 0.043 µg/mL (≈ 0.1 µM).

In the case of `CCCCSCC(O)c1cc(C(F)(F)F)nc2c(C(F)(F)F)cccc12` (stereo not given), the IC50 [1] is reported as over 0.5 µg/mL, the IC50 [2] is reported as over 0.5 µg/mL and the IC90 [3] is reported as over 0.5 µg/mL. For the same molecule, the IC50 [4] was over 0.5 µg/mL.

In the case of `CC(C)c1nccn1CC(O)c1cc(C(F)(F)F)nc2c(C(F)(F)F)cccc12` (stereo not given), the IC50 [1] is reported as over 0.5 µg/mL, the CC50 [6] is reported as 50.1 µg/mL (≈ 120 µM) and the IC50 [2] is reported as over 0.5 µg/mL. It also gave an IC90 [3] of over 0.5 µg/mL, an IC50 [4] of over 0.5 µg/mL and a half-life [5] of 10 min.
